Assay: Water-solubility of the phthalocyanine compound
Assay type: physicochemical
Details: at the ordinary temperature
Procedure: 300 parts of wet cake containing 53.6 parts of tetramino copper phthalocyanine (0.085 mol) were suspended in 360 parts of water in a four-neck flask equipped with a condenser, followed by heating to 60° C. with stirring, dropping 9.5 parts of acetic anhydride (0.093 mol) at the same temperature and stirring at the same temperature for 5 hours. Successively 0.2 parts of hydroquinone and 95.4 parts of acrylic acid […] were added, followed by heating to 80° C. and stirring with keeping the same temperature for 12 hours. Judging from the reaction, mixture of several compounds though it is, the reaction product is found to correspond to a compound which comprises tetramino phthalocyanine having on average one introduced acyl group (acetylamino) and three introduced carboxyethyl per molecule, namely the desired monoacetylamino(2-tricarboxyethylamino) copper phthalocyanine.

water-solubility: about 10 % by mass
Substance: monoacetylamino(2-tricarboxyethylamino) copper phthalocyanine [Example 5]

From US7018456B2, “Phthalocyanine compound, water-base ink composition and colored material” (Nippon Kayaku Kabushiki Kaisha, priority 2002, dated 2006)
